These are literature values, as cited in patent US20180008675A1, “USE OF URODILATING FOR PREPARING A MEDICAMENT FOR TREATMENT OF CARDIOVASCULAR, RENAL, PULMONARY, AND NEURONAL SYNDROMES WHILE AVOIDING A REBOUND” (CARDIORENTIS AG, priority 2010, published 2018).

Series [1] relates to patients with chronic congestive heart failure. To be noted: 10-hour infusion, 15 ng/kg/min.
Series [2] deals with patients with chronic congestive heart failure / acute decompensated heart failure.
Another series concerns dogs. To be noted: dogs (Riegger et al., 1990).

On to urodilatin, for which the “central venous pressure (CVP)” value in series [1] (NYHA III chronic congestive heart failure (Eisner et al., 1995)) is on record as “increases slightly already after 5 hours of infusion”. In addition, in series [1] (chronic congestive heart failure (Eisner et al., 1995)), the urine flow result is “loss of action after 8 hours of infusion”. Further, in series [2] (15 and 30 ng/kg/min (Mitrovic et al., 2006)), the “changes of the cardiac index (CI)” value was “significant increase”. Also, the “changes of the baseline in pulmonary capillary wedge pressure (PCWP)” value in series [2] (15 and 30 ng/kg/min, compared with the placebo group (Mitrovic et al., 2006)) is reported as “significant reductions”. In addition, the “pulmonary capillary wedge pressure (PCWP), loss of effect during infusion” value in series [2] (after 6 to 8 hours of infusion (Mitrovic et al., 2006, FIG. 2A)) was “slight increase of PCWP”. Besides, the “cardiac index (CI), loss of effect during infusion” value in series [2] (after 6 to 8 hours of infusion (Mitrovic et al., 2006, FIG. 2C)) is reported as “partial drop of CI”. In addition, the “symptoms, morbidity and mortality” value in series [2] (all doses, acute decompensated heart failure (Mitrovic et al., 2005 and 2006)) was “significantly improved”. Besides, the “effect compared to other natriuretic peptides, such as ANP” value in the series on dogs is reported as “better effect in dogs”.
